Test results: ChEMBL document CHEMBL1151511, “Structure-based design of an inhibitor modeled at the substrate active site of aldose reductase” (Bioorg Med Chem Lett, 1997); call rule not given here

Legend:
[1] = target: T1, Aldo-keto reductase family 1 member B1 (Bos taurus, UniProt P16116); assay: Inhibitory activity of compound against modified enzyme form of S-glutathionyl Aldose reductase; Inactive
[2] = target: T1, Aldo-keto reductase family 1 member B1; assay: Tested for inhibition of bovine lens Aldose reductase (ALR2), expressed as IC50
[3] = target: T1, Aldo-keto reductase family 1 member B1; assay: Inhibitory activity of compound against modified enzyme form of S-glutathionyl Aldose reductase

Row | IC50 [1] | IC50 [2] [µM] | IC50 [3] [µM] | SMILES
1 | Not Active | 12 |  | O=C(O)Cn1nc2c(cc1=O)CCc1ccccc1-2
2 |  | 0.15 | 17 | O=C(O)Cn1nc2c(c(Cc3nc4cc(C(F)(F)F)ccc4s3)c1=O)CCc1ccccc1-2
